Data set [1] has as its system washed platelets. The method, then: Human blood was collected in ACD (85 mM tri-sodium citrate, 78 mM citric acid, 110 mM D-glucose, pH 4.4) at a ratio of 1.4 ml per 10 ml blood. PRP was isolated by centrifugation at 170 g for 14 minutes and platelets were further pelleted by centrifugation at 1300 g for 6 minutes. Platelets were washed once with 10 ml ACD containing 1 mg/ml bovine serum albumin. Platelets were resuspended at ˜2.5×10^8/ml in Tyrode's Buffer (137 mM NaCl, 2 mM KCl, 1.0 mM MgCl2, 1 mM CaCl2), 5 mM glucose, 20 mM HEPES pH 7.4).

Data set [2] addresses T1, PAR4 (Homo sapiens, UniProt Q96RI0).
T1 construct: expressed in transfected cells; host or cells: HEK293 PAR4 Clone 1.2A (BMS Arctic ID 383940)
T1 sequence (Q96RI0 18-385): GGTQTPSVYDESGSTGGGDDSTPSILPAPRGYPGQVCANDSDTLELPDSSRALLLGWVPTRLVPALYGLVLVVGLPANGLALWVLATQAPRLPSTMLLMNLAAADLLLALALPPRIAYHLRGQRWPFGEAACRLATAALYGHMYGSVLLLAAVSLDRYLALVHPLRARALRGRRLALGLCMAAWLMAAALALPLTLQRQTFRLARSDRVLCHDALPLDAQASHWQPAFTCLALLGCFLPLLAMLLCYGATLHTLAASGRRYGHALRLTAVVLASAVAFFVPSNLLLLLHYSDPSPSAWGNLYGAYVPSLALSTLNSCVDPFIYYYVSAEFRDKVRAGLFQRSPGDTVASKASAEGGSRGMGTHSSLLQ
The data set is described as follows: PAR4 FLIPR assay (antagonism of agonist peptide-induced calcium mobilization). The data set is classed as cell-based. In short, it runs like this:
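Antagonism was taken as block of calcium mobilization evoked by the agonist peptide H-Ala-Phe(4-F)-Pro-Gly-Trp-Leu-Val-Lys-Asn-[…]-NH2, added after 30 min room-temperature compound preincubation in dye-loaded PAR4-transfected HEK293 cells (endogenous PAR1). Fluorescence was read on FDSS, with compound addition alone used as the agonist counter-screen; values come from 11-point concentration-response curves.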
For orientation: Calcium flux is commonly read through the fluorescence of an indicator in the cells.

Data set [3] addresses T2, protease-activated receptor type 4 (PAR4) (Homo sapiens, UniProt Q96RI0).
T2 sequence (Q96RI0 18-385): T1 sequence (Q96RI0 18-385)
Particulars: abstract of J. Med. Chem. 44(22):3746-3749 (2001); cited from earlier work.

The target of data set [4] is T3, PAR1 (Homo sapiens, UniProt P25116).
T3 construct: in the TRACER phase III trial in ACS patients; host or cells: ACS patients (clinical trial)
T3 sequence (P25116 22-425): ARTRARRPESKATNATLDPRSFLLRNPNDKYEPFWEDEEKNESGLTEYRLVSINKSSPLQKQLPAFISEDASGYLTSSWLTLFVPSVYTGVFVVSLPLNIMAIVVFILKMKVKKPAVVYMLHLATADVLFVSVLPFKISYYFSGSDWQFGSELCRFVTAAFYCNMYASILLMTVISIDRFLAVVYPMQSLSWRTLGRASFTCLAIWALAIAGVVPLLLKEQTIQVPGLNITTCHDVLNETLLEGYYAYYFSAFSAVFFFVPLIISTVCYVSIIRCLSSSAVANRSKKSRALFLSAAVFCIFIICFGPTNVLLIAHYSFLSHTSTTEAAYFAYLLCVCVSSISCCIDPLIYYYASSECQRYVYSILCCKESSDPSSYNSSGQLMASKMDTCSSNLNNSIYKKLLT
The conditions noted are these: ACS patients, TRACER phase III trial; cited from earlier work.

Like-named read-outs stand apart in the source and are kept apart here.

Usually EC50 stands for the midpoint of the concentration-response curve. Read a high EC50 as a need for much substance. For `C[C@H](N)C(=O)N[C@@H](Cc1ccc(O)cc1)C(=O)N1CCC[C@H]1C(=O)NCC(=O)N[C@@H](CCCCN)C(=O)N[C@@H](Cc1ccccc1)C(=O)O` [AYPGKF], in data set [1], it took 12000 nM to reach a half-maximal effect (EC50).
Usually IC50 stands for the concentration at which inhibition is half-maximal. For `Cc1ncc(NC(=O)OC[C@H]2COc3c(ccc4nc(-c5cc(Cl)cc6cc(OC(F)F)cnc56)sc34)O2)cn1` [Example 272, (R)-(2-(6-chloro-3-(difluoromethoxy)quinolin-8-yl)-7,8-dihydro-[1,4]dioxino[2′,3′:3,4]benzo[1,2-d]thiazol-7-yl)methyl (2-methylpyrimidin-5-yl)carbamate], in data set [2], the IC50 was determined as 3.3 nM.
Regarding `Cc1ncc(NC(=O)OC[C@H]2Cc3c(c(F)cc4nc(-c5cc(Cl)cc6cc(OC(F)F)cnc56)sc34)O2)cn1` [Example 273, (R)-(2-(6-chloro-3-(difluoromethoxy)quinolin-8-yl)-5-fluoro-7,8-dihydrobenzofuro[5,4-d]thiazol-7-yl)methyl (2-methylpyrimidin-5-yl)carbamate], the IC50 in data set [2] turned out to be 6.4 nM.
The same measure, in the same setting: the value for `COc1cnc2c(-c3nc4ccc5c(c4s3)OC[C@H](COC(=O)Nc3cnc(C)nc3)O5)cc(C(F)F)cc2c1` [Example 275, (R)-(2-(6-(difluoromethyl)-3-methoxyquinolin-8-yl)-7,8-dihydro-[1,4]dioxino [2′,3′:3,4]benzo[1,2-d]thiazol-7-yl)methyl (2-methylpyrimidin-5-yl)carbamate] was 12 nM; that for `COc1cnc2c(-c3nc4ccc5c(c4s3)OC[C@H](COC(=O)Nc3cnc(C)nc3)O5)cc(CF)cc2c1` [Example 276, (R)-(2-(6-(fluoromethyl)-3-methoxyquinolin-8-yl)-7,8-dihydro-[1,4]dioxino[2′,3′:3,4]benzo[1,2-d]thiazol-7-yl)methyl (2-methylpyrimidin-5-yl)carbamate] was 140 nM.
As for `COc1cnc2c(-c3nc4c(C(O)C5(C)CCCCC5)cc5c(c4s3)OCCO5)cc(C)cc2n1` (centres unmarked) [Example 278, (2-(2-methoxy-7-methylquinoxalin-5-yl)-7,8-dihydro-[1,4]dioxino[2′,3′:3,4]benzo[1,2-d]thiazol-4-yl)(1-methylcyclohexyl)methanol], the IC50 in data set [2] is 19 nM.
Consider `COc1cnc2c(-c3nc4c(C(O)C5(C(F)(F)F)CC5)cc5c(c4s3)OCCO5)cc(C)cc2n1` (centres unmarked) [Example 279, (2-(2-methoxy-7-methylquinoxalin-5-yl)-7,8-dihydro-[1,4]dioxino[2′,3′:3,4]benzo[1,2-d]thiazol-4-yl)(1-(trifluoromethyl)cyclopropyl)methanol], for which, in data set [2], the IC50 turned out to be 9.1 nM.
Consider `COc1cnc2c(-c3nc4cc(F)c5c(c4s3)C[C@H](COC(=O)Nc3cnc(C)nc3)O5)cc(F)cc2c1` [Example 280, (R)-(5-fluoro-2-(6-fluoro-3-methoxyquinolin-8-yl)-7,8-dihydrobenzofuro[5,4-d]thiazol-7-yl)methyl (2-methylpyrimidin-5-yl)carbamate], for which, in data set [2], the IC50 was determined as 2.4 nM.
With `COc1cnc2c(-c3nc4ccc5c(c4s3)OC[C@H](COC(=O)Nc3cnc(C)nc3)O5)cc(F)cc2c1` [Example 281, (R)-(2-(6-fluoro-3-methoxyquinolin-8-yl)-7,8-dihydro-[1,4]dioxino[2′,3′:3,4]benzo[1,2-d]thiazol-7-yl)methyl (2-methylpyrimidin-5-yl)carbamate], the IC50 in data set [2] is 9 nM.
On the same count and under the same terms, the value for `COc1cnc2c(-c3nc4cc(F)c5c(c4s3)C[C@H](CO)O5)cc(Cl)cc2c1` [Example 282, (R)-(2-(6-chloro-3-methoxyquinolin-8-yl)-5-fluoro-7,8-dihydrobenzofuro[5,4-d]thiazol-7-yl)methanol] was 36 nM; that for `COc1cnc2c(-c3nc4cc(F)c5c(c4s3)C[C@H](COC(=O)Nc3cccnc3)O5)cc(Cl)cc2c1` [Example 283, (R)-(2-(6-chloro-3-methoxyquinolin-8-yl)-5-fluoro-7,8-dihydrobenzofuro[5,4-d]thiazol-7-yl)methyl pyridin-3-ylcarbamate] was 2.2 nM.
With `COc1cnc2c(-c3nc4cc(F)c5c(c4s3)C[C@H](COC(=O)Nc3cccc(C(N)=O)c3)O5)cc(Cl)cc2c1` [Example 284, (R)-(2-(6-chloro-3-methoxyquinolin-8-yl)-5-fluoro-7,8-dihydrobenzofuro[5,4-d]thiazol-7-yl)methyl (3-carbamoylphenyl)carbamate], the IC50 in data set [2] is 2.8 nM.
Turning to `COc1cnc2c(-c3nc4cc(F)c5c(c4s3)C[C@@](C)(CO)O5)cc(Cl)cc2c1` [Example 285, (S)-(2-(6-chloro-3-methoxyquinolin-8-yl)-5-fluoro-7-methyl-7,8-dihydrobenzofuro[5,4-d]thiazol-7-yl)methanol], the IC50 in data set [2] was determined as 1.5 nM.
Take `COc1cnc2c(-c3nc4cc(F)c5c(c4s3)C[C@](C)(COC(=O)Nc3cnc(OCCO)nc3)O5)cc(Cl)cc2c1` [Example 286, (R)-(2-(6-chloro-3-methoxyquinolin-8-yl)-5-fluoro-7-methyl-7,8-dihydrobenzofuro[5,4-d]thiazol-7-yl)methyl (2-(2-hydroxyethoxy)pyrimidin-5-yl)carbamate]: the IC50 in data set [2] was determined as 1 nM.
As to `COc1cnc2c(-c3nc4ccc5c(c4s3)OC[C@H](COC(=O)Nc3cnc(OCCO)nc3)O5)cc(Cl)cc2c1` [Example 287, (R)-(2-(6-chloro-3-methoxyquinolin-8-yl)-7,8-dihydro-[1,4]dioxino[2′,3′:3,4]benzo[1,2-d]thiazol-7-yl)methyl (2-(2-hydroxyethoxy)pyrimidin-5-yl)carbamate], the concentration for half-maximal inhibition (IC50) in data set [2] amounted to 1.6 nM.
Regarding `COc1cnc2c(-c3nc4ccc5c(c4s3)OC[C@H](COC(=O)Nc3cnc(OC[C@H](C)O)nc3)O5)cc(Cl)cc2c1` [Example 288, ((R)-2-(6-chloro-3-methoxyquinolin-8-yl)-7,8-dihydro-[1,4]dioxino[2′,3′:3,4]benzo[1,2-d]thiazol-7-yl)methyl (2-((S)-2-hydroxypropoxy)pyrimidin-5-yl)carbamate], the IC50 in data set [2] came to 2.2 nM.
On to `COc1cnc2c(-c3nc4ccc5c(c4s3)OC[C@H](COC(=O)Nc3cnc(OC[C@@H](C)O)nc3)O5)cc(Cl)cc2c1` [Example 289, ((R)-2-(6-chloro-3-methoxyquinolin-8-yl)-7,8-dihydro-[1,4]dioxino[2′,3′:3,4]benzo[1,2-d]thiazol-7-yl)methyl (2-((R)-2-hydroxypropoxy)pyrimidin-5-yl)carbamate], for which, in data set [2], the IC50 is 1.8 nM.
On to `COc1cnc2c(-c3nc4cc(F)c5c(c4s3)[C@H](C)[C@@H](CO)O5)cc(Cl)cc2c1` [Example 290, ((7S,8S)-2-(6-chloro-3-methoxyquinolin-8-yl)-5-fluoro-8-methyl-7,8-dihydrobenzofuro[5,4-d]thiazol-7-yl)methanol], for which, in data set [2], the 50% inhibitory concentration (IC50) is 0.8 nM.
For `COc1cnc2c(-c3nc4cc(F)c5c(c4s3)OC[C@H](CO)O5)cc(C)cc2n1` [Example 291, (S)-(5-fluoro-2-(2-methoxy-7-methylquinoxalin-5-yl)-7,8-dihydro-[1,4]dioxino[2′,3′:3,4]benzo[1,2-d]thiazol-7-yl)methanol], in data set [2], the IC50 was 59 nM.
On to `CCOC(=O)c1ccc(-c2nn(Cc3ccccc3)c3ccccc23)cc1` [YD-3, ethyl 4-(1-benzyl-1H-indazol-3-yl)benzoate], for which the “Inhibition of PAR4-dependent platelet activation” value in data set [3] is “selective and potent inhibitor”.
As for `CCOC(=O)N[C@@H]1CC[C@@H]2[C@@H](C1)C[C@H]1C(=O)O[C@H](C)[C@H]1[C@H]2/C=C/c1ccc(-c2cccc(F)c2)cn1` [vorapaxar], in data set [4], the Cardiovascular events entry was “did not significantly reduce” and the “Risk of major bleeding” value is on record as “significantly increased”.
As to “(S)-5-fluoro-2-(2-methoxy-7-methylquinoxalin-5-yl)-7-(((2-methylpyrimidin-5-yl)oxy)m ethyl)-7,8-dihydro-[1,4]dioxino[2′,3′:3,4]benzo[1,2-d]thiazole [Example 292]”, in data set [2] (PAR4-expressing HEK293 cells, calcium mobilization induced by H-Ala-Phe(4-F)-Pro-Gly-Trp-Leu-Val-Lys-Asn-Gly-NH2, 11-point concentration-response curves), the IC50 stood at 1.1 nM.

The record behind these values is patent publication US11932658B2 (BRISTOL-MYERS SQUIBB COMPANY, priority 2016, dated 2024).
